Results taken from patent US10342819B2, “Oligonucleotide having non-natural nucleotide at 5′-terminal thereof” (Kyowa Hakko Kirin Co., Ltd., priority 2014, dated 2019).

Tested on: GAPDH mRNA
Test: RNAi activity of GAPDH-targeting siRNA, expression of mRNA of GAPDH, HPRT1 internal control (Test Example 5)
Assay type: cell-based, human
Procedure: The RNAi activity of a GAPDH-targeting siRNA having 8-Br-dA at the 5′ end of the antisense strand was evaluated by measuring an inhibitory effect on the expression of mRNA of GAPDH as described below. In a culture dish (Multidish 24 wells, Cat. No. 142475, manufactured by Nunc, Inc.), human cervical cancer-derived cell line Hela cells (CCL-2, purchased from ATCC) were suspended in RPMI medium (Invitrogen Life Technologies, 11875093) containing 10% fetal bovine serum, and 500 μL of the resulting cell suspension was inoculated into each well to give 50000 cells/well. […]
The cells after introduction of the siRNA were cultured under the conditions of 37° C. and 5% CO2 for 24 hours. […] NM_000942) were subjected to a PCR reaction by the Taqman probe method using ABI 7900HT Fast (ABI), and the levels of amplified mRNAs of the respective genes were measured. […] Further, in the negative control group, the level of the mRNA of GAPDH and the level of the amplified mRNA of PPIB were measured in the same manner, respectively, and a semi-quantitative level of the mRNA of GAPDH was calculated using the level of the amplified mRNA of PPIB as an internal control.
The activity of the GAPDDH-targeting siRNA obtained in Example 6 was evaluated by measuring an inhibitory effect on the expression of mRNA of GAPDH in the same manner as in Test Example 4. […]

## 1096-5-F-dU: GAPDH-targeting siRNA, antisense XUACCAGGAAAUGAGCUUGAC, X = 5-fluoro-2′-deoxyuridine monophosphate
Relative ratio with negative control group taken as 1, concentration 1 pM
  level of target mRNA: 0.183
Relative ratio with negative control group taken as 1, concentration 10 pM
  level of target mRNA: 0.059
